According to the supplement of paper PMC9663587:

Assays:
Buparlisib/NVP-BKM120 = compound: Nc1cc(C(F)(F)F)c(-c2cc(N3CCOCC3)nc(N3CCOCC3)n2)cn1 [Buparlisib/NVP-BKM120]
TGX221 = compound: CC1=CN2C(=O)C=C(N=C2C(=C1)C(C)NC3=CC=CC=C3)N4CCOCC4 [TGX221]
Ceritinib/LDK378 = compound: Cc1cc(Nc2ncc(Cl)c(Nc3ccccc3S(=O)(=O)C(C)C)n2)c(OC(C)C)cc1C1CCNCC1 [Ceritinib/LDK378]
Volasertib/BI6727 = compound: CC[C@@H]1C(=O)N(C)c2cnc(Nc3ccc(C(=O)N[C@H]4CC[C@H](N5CCN(CC6CC6)CC5)CC4)cc3OC)nc2N1C(C)C [Volasertib/BI6727]
Flavopiridol = compound: CN1CC[C@H](c2c(O)cc(O)c3c(=O)cc(-c4ccccc4Cl)oc23)[C@H](O)C1 [Flavopiridol]
[1] = compound: CCC1=CN=CN=C1N2CCN(CC2)CC3=NC4=C(N3)C=C(C=C4)C(F)(F)F
Dasatinib = compound: Cc1nc(Nc2ncc(C(=O)Nc3c(C)cccc3Cl)s2)cc(N2CCN(CCO)CC2)n1 [Dasatinib]
ABT-737 = compound: CN(C)CC[C@H](CSc1ccccc1)Nc1ccc(S(=O)(=O)NC(=O)c2ccc(N3CCN(Cc4ccccc4-c4ccc(Cl)cc4)CC3)cc2)cc1[N+](=O)[O-] [ABT-737]
Cabozantinib = compound: COc1cc2nccc(Oc3ccc(NC(=O)C4(C(=O)Nc5ccc(F)cc5)CC4)cc3)c2cc1OC [Cabozantinib]
[2] = compound: CCc1cnn2c(NCc3ccc[n+]([O-])c3)cc(N3CCCC[C@H]3CCO)nc12
INK128/MLN0128 = compound: CC(C)n1nc(-c2ccc3oc(N)nc3c2)c2c(N)ncnc21 [INK128/MLN0128]
Torin2 = compound: C1=CC(=CC(=C1)N2C(=O)C=CC3=CN=C4C=CC(=CC4=C32)C5=CN=C(C=C5)N)C(F)(F)F [Torin2]
AZD7762 = compound: NC(=O)Nc1cc(-c2cccc(F)c2)sc1C(=O)N[C@H]1CCCNC1 [AZD7762]
[3] = compound: CNc1nc(-c2ccc3c(N)n[nH]c3c2)cc(N2C[C@@H](C(=O)NC3CCCCC3)CC[C@H]2C)n1
Pictilisib/GDC0941 = compound: CS(=O)(=O)N1CCN(Cc2cc3nc(-c4cccc5[nH]ncc45)nc(N4CCOCC4)c3s2)CC1 [Pictilisib/GDC0941]
Paclitaxel = compound: CC(=O)O[C@H]1C(=O)[C@@]2(C)[C@H]([C@H](OC(=O)c3ccccc3)[C@]3(O)C[C@H](OC(=O)[C@H](O)[C@@H](NC(=O)c4ccccc4)c4ccccc4)C(C)=C1C3(C)C)[C@]1(OC(C)=O)CO[C@@H]1C[C@@H]2O [Paclitaxel]
senexin b = compound: CN1CCN(C(=O)c2ccc3cc(CCNc4ncnc5ccc(C#N)cc45)ccc3c2)CC1 [senexin b]
BSJ-01-175 = compound: CN(C)C/C=C/C(=O)Nc1ccc(O[C@@H]2CCC[C@@H](Nc3ncc(Cl)c(-c4c[nH]c5ccccc45)n3)C2)cc1 [BSJ-01-175]
[4] = compound: CC(=O)c1c(C)c2cnc(Nc3ccc(N4CCNCC4)cn3)nc2n(C2CCCC2)c1=O
Tivantinib/ARQ197 = compound: O=C1NC(=O)[C@@H](c2cn3c4c(cccc24)CCC3)[C@@H]1c1c[nH]c2ccccc12 [Tivantinib/ARQ197]
AZD2014 = compound: CNC(=O)c1cccc(-c2ccc3c(N4CCOC[C@@H]4C)nc(N4CCOC[C@@H]4C)nc3n2)c1 [AZD2014]
Taselisib/GDC0032 = compound: Cc1nc(-c2cn3c(n2)-c2ccc(-c4cnn(C(C)(C)C(N)=O)c4)cc2OCC3)n(C(C)C)n1 [Taselisib/GDC0032]
[5] = compound: Cc1nn(C)c(COc2ccc(N3CCN(S(=O)(=O)N(C)C)CC3)cc2)c1-c1cccc2c(CCCOc3cccc4ccccc34)c(C(=O)O)n(CCN3CCOCC3)c12
R0-3306 = compound: C1=CC2=C(C=CC(=C2)C=C3C(=O)NC(=NCC4=CC=CS4)S3)N=C1 [R0-3306]
LEE011/Ribociclib = compound: CN(C)C(=O)c1cc2cnc(Nc3ccc(N4CCNCC4)cn3)nc2n1C1CCCC1 [LEE011/Ribociclib]
THZ-P1-2 = compound: CN(C)C/C=C/C(=O)NC1=CC=C(C=C1)C(=O)NC2=CC=CC(=C2)NC3=NC=NC(=C3)C4=CNC5=CC=CC=C54 [THZ-P1-2]
Olaparib/AZD2281 = compound: O=C(c1cc(Cc2n[nH]c(=O)c3ccccc23)ccc1F)N1CCN(C(=O)C2CC2)CC1 [Olaparib/AZD2281]
Neratinib/HKI272 = compound: CCOc1cc2ncc(C#N)c(Nc3ccc(OCc4ccccn4)c(Cl)c3)c2cc1NC(=O)/C=C/CN(C)C [Neratinib/HKI272]
Ipatasertib/GDC0068 = compound: CC(C)NC[C@@H](C(=O)N1CCN(c2ncnc3c2[C@H](C)C[C@H]3O)CC1)c1ccc(Cl)cc1 [Ipatasertib/GDC0068]
Luminespib/NVP-AUY922 = compound: CCNC(=O)c1noc(-c2cc(C(C)C)c(O)cc2O)c1-c1ccc(CN2CCOCC2)cc1 [Luminespib/NVP-AUY922]
Doxorubicin = compound: COc1cccc2c1C(=O)c1c(O)c3c(c(O)c1C2=O)C[C@@](O)(C(=O)CO)C[C@@H]3O[C@H]1C[C@H](N)[C@H](O)[C@H](C)O1 [Doxorubicin]
BSJ-03-123 = compound: CC(=O)c1c(C)c2cnc(Nc3ccc(N4CCN(CCOCCOCCOCCNC(=O)COc5cccc6c5C(=O)N(C5CCC(=O)NC5=O)C6=O)CC4)cn3)nc2n(C2CCCC2)c1=O [BSJ-03-123]
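Further: breast cancer and non-malignant breast epithelial cell lines, Deep Dye Drop or Dye Drop imaging, nine half-log doses, GR normalized to time-zero plates and DMSO-only controls.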

Row | Cell Line | GR50, 72 h (Buparlisib/NVP-BKM120) | GR50, 72 h (TGX221) | GR50, 72 h (Ceritinib/LDK378) | GR50, 72 h (Volasertib/BI6727) | GR50, 72 h (Flavopiridol) | GR50, 72 h [1] | GR50, 72 h (Dasatinib) | GR50, 72 h (ABT-737) | GR50, 72 h (Cabozantinib) | GR50, 72 h [2] | GR50, 72 h (INK128/MLN0128) | GR50, 72 h (Torin2) | GR50, 72 h (AZD7762) | GR50, 72 h [3] | GR50, 72 h (Pictilisib/GDC0941) | GR50, 72 h (Paclitaxel) | GR50, 72 h (senexin b) | GR50, 72 h (BSJ-01-175) | GR50, 72 h [4] | GR50, 72 h (Tivantinib/ARQ197) | GR50, 72 h (AZD2014) | GR50, 72 h (Taselisib/GDC0032) | GR50, 72 h [5] | GR50, 72 h (R0-3306) | GR50, 72 h (LEE011/Ribociclib) | GR50, 72 h (THZ-P1-2) | GR50, 72 h (Olaparib/AZD2281) | GR50, 72 h (Neratinib/HKI272) | GR50, 72 h (Ipatasertib/GDC0068) | GR50, 72 h (Luminespib/NVP-AUY922) | GR50, 72 h (Doxorubicin) | GR50, 72 h (BSJ-03-123)
1 | HCC70 | 0.437 µM | 0.0912 µM | 3.19 µM | 0.0066 µM | 0.0784 µM | > 10 µM | 0.00964 µM | 2.78 µM | 1.54 µM | 0.0129 µM | 0.0048 µM | 0.00585 µM | 0.0412 µM | 1.27 µM | 0.161 µM | 0.00134 µM | > 10 µM | 0.0192 µM | > 3.16 µM | 0.335 µM | < 0.001 µM | 0.161 µM | > 10 µM | 4.53 µM | > 10 µM | 3.18 µM | > 10 µM | 0.16 µM | 0.14 µM | 0.00765 µM | 0.0108 µM | 4.15 µM
2 | HCC202 | 0.431 µM | > 10 µM | 4.75 µM | 0.015 µM | 0.14 µM | > 10 µM | 0.0186 µM | > 10 µM | > 10 µM | 0.0137 µM | 0.0112 µM | 0.0137 µM | 0.0585 µM | 0.842 µM | 0.208 µM | 0.00379 µM | > 10 µM | 0.0167 µM | > 3.16 µM | 0.816 µM | 0.00237 µM | 0.00366 µM | > 10 µM | 5.71 µM | > 10 µM | 6.48 µM | > 10 µM | 0.0317 µM | 3.36 µM | 0.0114 µM | 0.0268 µM | 3.36 µM
3 | HCC1143 | 0.725 µM | > 10 µM | 1.45 µM | 0.00459 µM | 0.17 µM | > 10 µM | 0.139 µM | 6.19 µM | > 10 µM | 0.0151 µM | 0.0405 µM | 0.0447 µM | 0.0557 µM | > 10 µM | 0.978 µM | 0.00207 µM | > 10 µM | 0.0506 µM | 0.277 µM | 0.278 µM | 0.413 µM | 0.215 µM | > 10 µM | 1.66 µM | 3.65 µM | 5.01 µM | 8.83 µM | 0.672 µM | > 10 µM | 0.00391 µM | 0.00927 µM | 1.87 µM
4 | HCC1395 | 0.93 µM | 8.42 µM | 1.6 µM | 0.00321 µM | 0.126 µM | > 10 µM | 0.0748 µM | > 10 µM | 5.55 µM | 0.0124 µM | 0.0108 µM | 0.0146 µM | 0.0217 µM | > 10 µM | 1.43 µM | 0.00388 µM | 5.9 µM | 0.015 µM | 0.0952 µM | 0.481 µM | 0.0101 µM | 2.14 µM | > 10 µM | 0.463 µM | 3.67 µM | 2.89 µM | 1.87 µM | 0.958 µM | 0.926 µM | 0.005 µM | 0.0179 µM | 1.12 µM
5 | HCC1419 | 0.396 µM | > 10 µM | 2.61 µM | 0.0207 µM | 0.191 µM | 5.28 µM | 0.825 µM | 9.85 µM | > 10 µM | 0.0267 µM | 0.00475 µM | 0.0055 µM | 0.0686 µM | 7.64 µM | 0.172 µM | 0.00526 µM | 10 µM | 0.541 µM | 0.462 µM | 0.473 µM | < 0.001 µM | 0.00918 µM | > 10 µM | 8.88 µM | > 10 µM | 6.2 µM | > 10 µM | 0.00115 µM | > 10 µM | 0.007 µM | 0.0251 µM | 0.491 µM
6 | HCC1806 | 1.05 µM | > 10 µM | 2.14 µM | 0.0028 µM | 0.168 µM | > 10 µM | 0.0537 µM | > 10 µM | > 10 µM | 0.0134 µM | 0.0524 µM | 0.0358 µM | 0.0166 µM | > 10 µM | 5.87 µM | 0.00143 µM | > 10 µM | 0.092 µM | > 3.16 µM | 0.272 µM | 1.82 µM | 1.55 µM | > 10 µM | 5.39 µM | > 10 µM | 4.69 µM | > 10 µM | 0.78 µM | > 10 µM | 0.0109 µM | 0.0159 µM | 2.56 µM
7 | HCC1937 | 1.45 µM | > 10 µM | 3.53 µM | 0.0119 µM | 0.168 µM | > 10 µM | 0.113 µM | 5.77 µM | > 10 µM | 0.0218 µM | 0.0515 µM | 0.0934 µM | 0.17 µM | > 10 µM | 2.42 µM | 0.00245 µM | 4.95 µM | 0.302 µM | > 3.16 µM | 0.649 µM | 0.0304 µM | 1.23 µM | > 10 µM | 5.17 µM | > 10 µM | 4.05 µM | > 10 µM | 1.46 µM | > 10 µM | 0.0114 µM | 0.0128 µM | 9.94 µM
